Results: patent publication US20260315464A1, “COMPOSITIONS, METHODS, AND SYSTEMS FOR MODULATING SPLICING OF MSH3” (REVIR THERAPEUTICS, INC., priority 2023, published 2026)

System: MSH3
Assay: QPCR assay for levels of MSH3 upon compound treatment in HEK293T or AD293 cells (fold-change of MSH3 transcript, EC50 of MSH3 downregulation; total MSH3 exons 13/14, exons 20/21; Table 8)
Format: cell-based
Settings: Homo sapiens, fold-change of the MSH3 transcript, normalized to GAPDH; for mrna remaining at 1 µM: 1 μM compound; for mrna remaining at 10 µM: 10 μM compound
How it was run: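 MSH3 mRNA was quantified by TaqMan qPCR covering exons 13/14, exons 20/21, exon 13/PE14A and exon 20/PE21A, with GAPDH as reference. Cells used were HEK293T or AD293, treated with compound at 1 μM and […].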

Structure (SMILES) | mrna remaining at 1 µM | mrna remaining at 10 µM
Cc1nn(C)nc1-c1cc(F)c2c(c1)C(=O)N(c1ccc(N3CCN[C@H](C(C)C)C3)nn1)C2 [Compound 640, (R)-6-(2,5-dimethyl-2H-1,2,3-triazol-4-yl)-4-fluoro-2-(6-(3-isopropylpiperazin-1-yl)pyridazin-3-yl)isoindolin-1-one] | 99% | 25%
Cc1nn(C)nc1-c1cc(F)c2c(c1)C(=O)N(c1ccc(N3C[C@@H](C)N[C@@H](C)C3)nn1)C2 [Compound 641, 6-(2,5-dimethyl-2H-1,2,3-triazol-4-yl)-2-(6-((3S,5R)-3,5-dimethylpiperazin-1-yl)pyridazin-3-yl)-4-fluoroisoindolin-1-one] | 96% | 34%
Cn1nc(Cl)c(-c2cc(F)c3c(c2)C(=O)N(c2ccc(N4CCNC(C)(C)C4)nn2)C3)n1 [Compound 642, 6-(5-chloro-2-methyl-2H-1,2,3-triazol-4-yl)-2-(6-(3,3-dimethylpiperazin-1-yl)pyridazin-3-yl)-4-fluoroisoindolin-1-one] | 91% | 21%
Cc1nn(C)nc1-c1cc(F)c2c(c1)C(=O)N(c1ccc(N3CCNC(C)(C)C3)nn1)C2 [Compound 643, 6-(2,5-dimethyl-2H-1,2,3-triazol-4-yl)-2-(6-(3,3-dimethylpiperazin-1-yl)pyridazin-3-yl)-4-fluoroisoindolin-1-one] | 109% | 72%
Cn1nc(Cl)c(-c2cc(F)c3c(c2)C(=O)N(c2ccc(N4CC5(CCNC5)C4)nn2)C3)n1 [Compound 644, 2-(6-(2,6-diazaspiro[3.4]octan-2-yl)pyridazin-3-yl)-6-(5-chloro-2-methyl-2H-1,2,3-triazol-4-yl)-4-fluoroisoindolin-1-one] | 87% | 97%
Cn1nc(Cl)c(-c2cc(F)c3c(c2)C(=O)N(c2ccc(N4CC5CCC(C4)NC5)nn2)C3)n1 (stereo not shown) [Compound 645] | 87% | 104%
Cc1nn(C)nc1-c1cc(F)c2c(c1)C(=O)N(c1ccc(N3CCC4(CCNC4)C3)nn1)C2 (stereo not shown) [Compound 646, 2-(6-(2,7-diazaspiro[4.4]nonan-2-yl)pyridazin-3-yl)-6-(2,5-dimethyl-2H-1,2,3-triazol-4-yl)-4-fluoroisoindolin-1-one] | 115% | 76%
CN(C)C1CN(c2ccc(N3Cc4c(F)cc(-c5nn(C)nc5Cl)cc4C3=O)nn2)C1 [Compound 647, 6-(5-chloro-2-methyl-2H-1,2,3-triazol-4-yl)-2-(6-(3-(dimethylamino)azetidin-1-yl)pyridazin-3-yl)-4-fluoroisoindolin-1-one] | 119% | 86%
Cc1nn(C)nc1-c1cc(F)c2c(c1)C(=O)N(c1ccc(N3CC[C@@H](NC(C)(C)C)C3)nn1)C2 [Compound 648, (R)-2-(6-(3-(tert-butylamino)pyrrolidin-1-yl)pyridazin-3-yl)-6-(2,5-dimethyl-2H-1,2,3-triazol-4-yl)-4-fluoroisoindolin-1-one] | 113% | 87%
CC(C)(O)Cn1cc(-c2cc(F)c3c(c2)C(=O)N(c2ccc(OC4CC(C)(C)NC(C)(C)C4)nn2)C3)c(Cl)n1 [Compound 649, 6-(3-chloro-1-(2-hydroxy-2-methylpropyl)-1H-pyrazol-4-yl)-4-fluoro-2-(6-((2,2,6,6-tetramethylpiperidin-4-yl)oxy)pyridazin-3-yl)isoindolin-1-one] | 106% | 63%
Cc1nn(C)nc1-c1cc(F)c2c(c1)C(=O)N(c1ccc(N3CCNC4(CC4)C3)nn1)C2 [Compound 650, 2-(6-(4,7-diazaspiro[2.5]octan-7-yl)pyridazin-3-yl)-6-(2,5-dimethyl-2H-1,2,3-triazol-4-yl)-4-fluoroisoindolin-1-one] | 97% | 75%
Cc1nn(C)nc1-c1cc(F)c2c(c1)C(=O)N(c1ccc(N3CCC4CCC(C3)N4)nn1)C2 (stereo not shown) [Compound 651, 2-(6-(3,9-diazabicyclo[4.2.1]nonan-3-yl)pyridazin-3-yl)-6-(2,5-dimethyl-2H-1,2,3-triazol-4-yl)-4-fluoroisoindolin-1-one] | 96% | 60%
Cn1nc(Cl)c(-c2cc(F)c3c(c2)C(=O)N(c2ccc(N4CCC(NC5CC5)C4)nn2)C3)n1 (stereo not shown) [Compound 652, 6-(5-chloro-2-methyl-2H-1,2,3-triazol-4-yl)-2-(6-(3-(cyclopropylamino)pyrrolidin-1-yl)pyridazin-3-yl)-4-fluoroisoindolin-1-one] | 103% | 79%
Cn1nc(Cl)c(-c2cc(F)c3c(c2)C(=O)N(c2ccc(N4CC5CCC(C4)N5)nn2)C3)n1 [Compound 653, 2-(6-(3,8-diazabicyclo[3.2.1]octan-3-yl)pyridazin-3-yl)-6-(5-chloro-2-methyl-2H-1,2,3-triazol-4-yl)-4-fluoroisoindolin-1-one] | 93% | 27%
CCN1CC2CN(c3ccc(N4Cc5c(F)cc(-c6nn(C)nc6Cl)cc5C4=O)nn3)CC2C1 (stereo not shown) [Compound 654, 6-(5-chloro-2-methyl-2H-1,2,3-triazol-4-yl)-2-(6-(5-ethylhexahydropyrrolo[3,4-c]pyrrol-2(1H)-yl)pyridazin-3-yl)-4-fluoroisoindolin-1-one] | 90% | 61%
Cn1nc(Cl)c(-c2cc(F)c3c(c2)C(=O)N(c2ccc(N4CC5CC(C4)N5)nn2)C3)n1 [Compound 655, 2-(6-(3,6-diazabicyclo[3.1.1]heptan-3-yl)pyridazin-3-yl)-6-(5-chloro-2-methyl-2H-1,2,3-triazol-4-yl)-4-fluoroisoindolin-1-one] | 115% | 48%
Cn1nc(Cl)c(-c2cc(F)c3c(c2)C(=O)N(c2ccc(N4CC[C@@H](NC(C)(C)C)C4)nn2)C3)n1 [Compound 656, (R)-2-(6-(3-(tert-butylamino)pyrrolidin-1-yl)pyridazin-3-yl)-6-(5-chloro-2-methyl-2H-1,2,3-triazol-4-yl)-4-fluoroisoindolin-1-one] | 70% | 43%
Cc1nn(C)nc1-c1cc(F)c2c(c1)C(=O)N(c1ccc(N3CCC(C)(C)NC(C)(C)C3)nn1)C2 [Compound 657, 6-(2,5-dimethyl-2H-1,2,3-triazol-4-yl)-4-fluoro-2-(6-(3,3,5,5-tetramethyl-1,4-diazepan-1-yl)pyridazin-3-yl)isoindolin-1-one] | 75% | 26%
Cc1nn(C)nc1-c1cc(F)c2c(c1)C(=O)N(c1ccc(N3CC4CCC(C3)N4)nn1)C2 [Compound 658, 2-(6-(3,8-diazabicyclo[3.2.1]octan-3-yl)pyridazin-3-yl)-6-(2,5-dimethyl-2H-1,2,3-triazol-4-yl)-4-fluoroisoindolin-1-one] | 132% | 51%
Cn1nc(Cl)c(-c2cc(F)c3c(c2)C(=O)N(c2ccc(N4CCC5CCC(C4)N5)nn2)C3)n1 (stereo not shown) [Compound 659, 2-(6-(3,9-diazabicyclo[4.2.1]nonan-3-yl)pyridazin-3-yl)-6-(5-chloro-2-methyl-2H-1,2,3-triazol-4-yl)-4-fluoroisoindolin-1-one] | 142% | 57%
